Laboratory results published in patent publication US9643964B2, “3-(2-aminopyrimidin-4-yl)-5-(3-hydroxypropynyl)-1H-pyrrolo[2,3-C]pyridine derivatives as NIK inhibitors for the treatment of cancer” (Janssen Pharmaceutica NV, priority 2013, dated 2017).

Assays:
[1] = target: T1, Recombinant Human NF-kappaB-Inducing Kinase (NIK/MAP3K14) (Homo sapiens, UniProt Q99558); test: Biological Assay A: inhibition of recombinant human NIK/MAP3K14 activity (MBP phosphorylation, Mesoscale); format: biochemical; details: averaged over all measurements on all batches; read-out: Biochemical (MSD MBP) IC50
T1 sequence (Q99558 whole entry): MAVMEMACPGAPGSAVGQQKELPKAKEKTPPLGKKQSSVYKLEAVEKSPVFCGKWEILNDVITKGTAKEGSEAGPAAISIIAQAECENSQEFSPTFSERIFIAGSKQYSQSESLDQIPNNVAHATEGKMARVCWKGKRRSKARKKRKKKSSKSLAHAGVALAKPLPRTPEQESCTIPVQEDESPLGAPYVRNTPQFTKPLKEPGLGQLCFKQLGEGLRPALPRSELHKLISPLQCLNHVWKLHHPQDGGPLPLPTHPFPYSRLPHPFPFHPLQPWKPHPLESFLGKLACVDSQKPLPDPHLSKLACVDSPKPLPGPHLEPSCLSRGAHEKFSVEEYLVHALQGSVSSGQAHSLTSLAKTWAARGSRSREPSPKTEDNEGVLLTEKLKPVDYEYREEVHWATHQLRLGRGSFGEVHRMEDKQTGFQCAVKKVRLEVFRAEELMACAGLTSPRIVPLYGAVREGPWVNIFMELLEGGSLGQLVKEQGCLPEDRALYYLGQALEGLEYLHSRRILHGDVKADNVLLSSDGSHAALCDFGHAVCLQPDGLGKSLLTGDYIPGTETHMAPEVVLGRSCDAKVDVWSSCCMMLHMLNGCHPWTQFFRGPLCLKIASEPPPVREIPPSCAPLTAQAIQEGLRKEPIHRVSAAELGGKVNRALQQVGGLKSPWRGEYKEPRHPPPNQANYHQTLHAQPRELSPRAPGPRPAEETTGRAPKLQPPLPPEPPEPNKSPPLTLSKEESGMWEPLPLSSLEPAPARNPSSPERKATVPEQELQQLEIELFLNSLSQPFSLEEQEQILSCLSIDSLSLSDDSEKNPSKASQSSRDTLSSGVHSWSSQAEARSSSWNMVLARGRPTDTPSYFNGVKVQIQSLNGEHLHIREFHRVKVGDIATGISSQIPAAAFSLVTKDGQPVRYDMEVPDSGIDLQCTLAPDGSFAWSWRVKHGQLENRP
Protocol: Inhibition of Recombinant Human NF-kappaB-Inducing Kinase (NIK/MAP3K14) Activity
Assay buffer was 50 mM Tris pH 7.5 containing 1 mM EGTA (ethylene glycol tetraacetic acid), 1 mM DTT (dithiothreitol), 0.1 mM Na3VO4, 5 mM MgCl2, 0.01% Tween 20. Assays were carried out in 384 well Mesoscale high binding plates which had been coated with myelin basic protein (MBP) and blocked with bovine serum albumin to prevent non-specific protein binding. All compounds tested were dissolved in dimethyl sulfoxide (DMSO) and further dilutions were made in assay buffer. Final DMSO concentration was 1% (v/v) in assays. Incubations consisted of compound (1% DMSO in control and blank wells), 25 μM Adenosine-5′-triphosphate (ATP), and 10 nM NIK/MAP3K14 substituting enzyme with buffer in the blank wells. Incubations were carried out for 1 h at 25° C. and were followed by washing and sequential incubation with rabbit anti-phospho-MBP and anti-rabbit Ig Sulfotag antibody before reading bound Sulfotag on a Mesoscale Discovery. Signal obtained in the wells containing blank samples was subtracted from all other wells and IC50's were determined by fitting a sigmoidal curve to % inhibition of control versus Log10 compound concentration.

LP-1 cells = test: Biological Assay C: antiproliferative activity on LP-1 cells (CellTiter-Glo); format: cell-based, human; details: Homo sapiens, LP-1, 72 h, 72 hr treatment; averaged values
Method in brief: (§1)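 Luminescent ATP signal (CellTiter-Glo) measures growth of myeloma cells following a 72 h compound treatment. Values for the time-zero blank are subtracted, and each mean of duplicate wells is given as percentage of the no-drug control.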

L-363 cells = test: Biological Assay C: antiproliferative activity on L-363 cells (CellTiter-Glo); format: cell-based, human; details: Homo sapiens, L-363, 72 h, 72 hr treatment; averaged values
Method in brief: as §1

[2] = tested on: P-IKKα levels in L363 cells; test: Biological Assay B: effect of compounds on P-IKKα levels in L363 cells; format: cell-based; details: Homo sapiens, L-363, averaged values, read-out: IKKα Cellular IC50
Protocol: Effect of Compounds on P-IKKα Levels in L363 Cells
All compounds tested were dissolved in DMSO and further dilutions were made in culture medium. Final DMSO concentration was 1% (v/v) in cell assays. The human L363 cells (ATCC) were cultured in RPMI 1640 medium supplemented with GlutaMax and 10% fetal calf serum (PAA). Cells were routinely maintained at densities of 0.2×10^6 cells per ml-1×10^6 cells per ml at 37° C. in a humidified 5% CO2 atmosphere. Cells were passaged twice a week splitting back to obtain the low density. Cells were seeded in 96 well plates (Nunc 167008) at 2×10^6 per ml media in a volume of 75 μl per well plus 25 μl 1 μg/ml recombinant human B-cell activating factor BAFF/B1YS/TNFSF13B. Seeded cells were incubated at 37° C. in a humidified 5% CO2 atmosphere for 24 hr. Drugs and/or solvents were added (20 μl) to a final volume of 120 μl. Following 2 hr treatment plates were removed from the incubator and cell lysis was achieved by the addition of 30 μl 5× lysis buffer followed by shaking on a plate shaker at 4° C. for 10 min. At the end of this incubation lysed cells were centrifuged at 800×g for 20 min at 4° C. and the lysate was assessed for P-IKKα levels by sandwich immuno-assay carried out in anti-rabbit antibody coated Mesoscale plates. Within an experiment, the results for each treatment were the mean of 2 replicate wells. For initial screening purposes, compounds were tested using an 8 point dilution curve (serial 1:3 dilutions). For each experiment, controls (containing MG132 and BAFF but no test drug) and a blank incubation (containing MG132 and BAFF and 10 μM ADS125117, a test concentration known to give full inhibition) were run in parallel. The blank incubation value was subtracted from all control and sample values. To determine the IC50 a sigmoidal curve was fitted to the plot of % inhibition of control P-IKKα levels versus Log10 compound concentration.

[3] = target: T1, Recombinant Human NF-kappaB-Inducing Kinase (NIK/MAP3K14); test: Biological Assay A2: inhibition of auto-phosphorylation of recombinant human NIK/MAP3K14 (AlphaScreen); format: biochemical; details: auto-phosphorylation; averaged over all measurements on all batches; read-out: αscreen IC50
Method in brief: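 AlphaScreen readout of anti-phospho-IKK Ser176/180 signal after 1 h, 25° C. incubation of 0.2 nM GST-NIK with compound and 25 microM ATP (Tris pH 7.5 buffer, MgCl2, 1% DMSO final). IC50 from sigmoidal fit of blank-corrected % inhibition against Log10 concentration.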

JJN-3 cells = test: Biological Assay C: antiproliferative activity on JJN-3 cells (CellTiter-Glo); format: cell-based, human; details: Homo sapiens, JJN-3, 72 h, 72 hr treatment; averaged values
Method in brief: as §1

SMILES	IC50 [1] [nM]	IC50 [2] [nM]	IC50 [3] [nM]	EC50 (LP-1 cells) [nM]	EC50 (L-363 cells) [nM]	EC50 (JJN-3 cells) [nM]
CC(C)(O)Cn1cc(-c2ccnc(N)n2)c2cc(C#CC(C)(O)C(F)(F)F)ncc21 (stereo not drawn) [Compound 111]	220	290	190	7500	1300	640
CC(C)(O)C#Cc1cc2c(-c3ccnc(N)n3)cn(CC3CCOCC3)c2cn1 [Compound 55]	84	140	180	11000	980	380
CC(C)(O)C#Cc1cc2c(-c3ccnc(N)n3)cn(CCCN3CC(=O)NC3=O)c2cn1 [Compound 117]	100	3400	14	> 10000	9000	3300
CNC(=O)CCn1cc(-c2ccnc(N)n2)c2cc(C#CC(C)(C)O)ncc21 [Compound 49]	150	5900	360	> 10000	> 10000	32000
CC(C)(O)Cn1cc(-c2ccnc(N)n2)c2cc(C#CC(C)(O)c3ccccn3)ncc21 (stereo not drawn) [Compound 59]	71	5000	230	> 10000	> 10000	17000
CNc1ncc(Cl)c(-c2cn(CC(C)(C)O)c3cnc(C#CC(C)(C)O)cc23)n1 [Compound 58]	430	110	700	2000	500	550
CC(C)(O)C#Cc1cc2c(-c3ccnc(N)n3)cn(CCS(C)(=O)=O)c2cn1 [Compound 67]	57	880	30	> 10000	2400	2400
CNc1nccc(-c2cn(CC(C)(C)O)c3cnc(C#CC(C)(C)O)cc23)n1 [Compound 68]	130	360	47	16000	960	1500
CN(C)C(=O)CCn1cc(-c2ccnc(N)n2)c2cc(C#CC(C)(C)O)ncc21 [Compound 50]	140	650	230	> 10000	7500	2700
CC(C)(O)Cn1cc(-c2ccnc(N)n2)c2cc(C#CC3(O)CCOC3)ncc21 (stereo not drawn) [Compound 29]	140	6300	110	> 10000	> 10000	> 10000
COCCNC(=O)c1c(-c2ccnc(N)n2)c2cc(C#CC(C)(C)O)ncc2n1C [Compound 69]	250	600	89	16000	870	1800
CCC(O)(C#Cc1cc2c(-c3ccnc(N)n3)cn(CCOC)c2cn1)CC [Compound 35]	120	470	150	3800	3000	2000

Stronger by IC50 [1], values ahead:

IC50 [1] [nM]	IC50 [2] [nM]	IC50 [3] [nM]	SMILES	EC50 (LP-1 cells) [nM]	EC50 (L-363 cells) [nM]	EC50 (JJN-3 cells) [nM]
36	110	79	COCCn1cc(-c2ccnc(N)n2)c2cc(C#CC(C)(O)c3ncco3)ncc21 (stereo not drawn) [Compound 31]	> 10000	6400	1900
30	89	9	CC(C)(O)Cn1cc(-c2nc(N)ncc2Cl)c2cc(C#CC(C)(O)c3nccs3)ncc21 (stereo not drawn) [Compound 23]	7700	9900	2500
29	280	38	CCC(C)(O)C#Cc1cc2c(-c3ccnc(N)n3)cn(CC(C)(C)O)c2cn1 (stereo not drawn) [Compound 43]	> 10000	4100	650
28	51	130	CN1CC(n2cc(-c3nc(N)ncc3F)c3cc(C#CC(C)(C)O)ncc32)C1 [Compound 70]	3000	120	210
27	21	17	COCCn1cc(-c2nc(N)ncc2F)c2cc(C#CC(C)(C)O)ncc21 [Compound 54]	330	59	89
25	140	18	CC(C)(O)C#Cc1cc2c(-c3ccnc(N)n3)cn(CC#N)c2cn1 [Compound 56]	14000	840	840
21	370	56	CC(C)(O)Cn1cc(-c2ccnc(N)n2)c2cc(C#CC3(O)CCCCC3)ncc21 [Compound 38]	> 10000	15000	1900
20	75	9	CC(C)(O)Cn1cc(-c2ccnc(N)n2)c2cc(C#CC3(O)CC3)ncc21 [Compound 22]	1600	190	280
9.2	100	29	CC(O)C#Cc1cc2c(-c3ccnc(N)n3)cn(C(C)C)c2cn1 (stereo not drawn) [Compound 10]	230	46	80
8	300	27	CC(C)(O)C#Cc1cc2c(-c3ccnc(N)n3)cn(CCCN)c2cn1 [Compound 11]	600	130	41
5.8	240	52	CC(C)(O)C#Cc1cc2c(-c3ccnc(N)n3)cn(C(C)(C)CO)c2cn1 [Compound 66]	7600	270	250
5.7	84	24	CC(C)(O)Cn1cc(-c2ccnc(N)n2)c2cc(C#CC3(O)CCC3)ncc21 [Compound 42]	16000	1500	330
5.3	18	16	CC(C)n1cc(-c2nc(N)ncc2Cl)c2cc(C#CC3(O)CCCC3)ncc21 [Compound 19]	1200	430	160
3.9	12	2	CC(C)(O)C#Cc1cc2c(-c3nc(N)ncc3F)c[nH]c2cn1 [Compound 45]	590	90	22
3.7	47	8	CC(C)n1cc(-c2ccnc(N)n2)c2cc(C#CC3(O)CCCC3)ncc21 [Compound 18]	1500	450	340
2.3	68	11	CC(C)(O)C#Cc1cc2c(-c3ccnc(N)n3)cn(CC3CCOC3)c2cn1 (stereo not drawn) [Compound 6]	3000	790	860
0.9	11	0.4	CC(C)(O)C#Cc1cc2c(-c3nc(N)ncc3Cl)c[nH]c2cn1 [Compound 14]	390	75	75
